# According to patent publication US6841577B2, “Pesticidal activity of plant essential oils and their constituents” (Ecosmart Technologies, Inc., priority 1999, dated 2005):
# Tests used:
# [1] = tested on: heart of American cockroach (octopamine receptors); assay: Heartbeat after application to thoracic segment; type: in vivo; conditions: mean ±SD of three roaches; for Heart beat/30 sec 30 min after treatment: 300 μg applied to thoracic segment; for Heart beat/30 sec before treatment: baseline of the same roaches
# Procedure: To further establish the effect of the purified naturally occurring plant essential oils and/or their constituents on the American cockroach, a 300 μg amount of the chemical was applied to the thoracic segment of an intact and alive American cockroach. The heart beats/30 seconds was measured. The heart of the cockroach is known to have a high concentration of octopamine receptors and the heart beat is considered an important measurement to indicate the effect of the applied chemicals to the octopamine receptors.
# [2] = tested on: octopamine receptor sites; assay: 3H-OA binding to ventral nerve cord / synaptosomal membrane protein; parameters: species or system American cockroach (Periplaneta americana); conditions: for dpm 3H-OA/500 μg protein: Table 2; for classification with respect to octopamine receptor sites (OAR): based on the binding data of Tables 1-3
# Procedure: Different concentrations of unlabeled octopamine (OA) (20, 30, 40, 50, 60, 100 ng) were tested on the binding activity as a positive control. Test chemicals were dissolved in acetone before the assay. Different concentrations of the test chemicals were added directly to the protein preparation from ventral nerve cord. The same amount of solvent (1 μl 0.1%) were added to the control samples. All assays with test chemicals were run in the presence and absence of 50 ng OA. All chemicals were added to the protein extract 20 min prior the addition of radio labeled ^3H-OA(100,000 cpm/sample). After 30 min at 24° C. of the addition of ^3H-OA, the reaction was stopped by the addition of ice-cold Tris buffer, and the samples were filtered through GF/C membrane using water vacuum. After two washes each with 5 ml Tris buffer, the membrane was removed, air dried and the radioactivity was counted in 4 ml liquid scintillation solution. The specific binding was calculated as the difference between the values in the presence and absence of unlabeled OA. All data are calculated as the mean±standard deviation of 5 assays.
# Additional tests were conducted on radio labeled octopamine using other purified naturally occurring materials as given in Tables 2 and 3.
# [3] = tested on: American cockroach; assay: Lethal effect of injected test chemicals; type: in vivo
# Procedure: Further studies were conducted to determine the LD 50 of purified naturally occurring plant essential oils and/or their constituents. […] Ten roaches per dose were used. Another group of ten roaches received the same volume of vehicle only (0.5 μl) and used as a control group. Mortality was recorded 24, 48, and 72 hours after exposure.
# [4] = tested on: American cockroach; assay: Cross walk jar test on pre-treated surface; type: in vivo; conditions: for pesticidal activity against cockroaches, in words: in vivo
# Procedure: In the test, a known amount of the test material was dissolved in a known volume of acetone and applied to small jars and all inner bottom surfaces were covered. The bottom surface of each jar is approximately 250 cm^2. One hour after the acetone had completely evaporated, five American cockroaches were introduced to each jar. Control jars were treated exactly as above but with the known amount of acetone only.
# The results of the “cross walk” jar tests are in Table 8 in which the “4-blend” was dispersed as an aerosol and a dust in the jar.
# In this test, the acetone solution of the test material was placed in the jar and the roach inserted into the jar after the acetone had evaporated.
# Mortality was measured 24 hours after exposure.
# The “4-blend” and the individual constituents of the “4-blend” were tested using 10 cockroaches for each “cross walk” treatment. In addition, pyrethrins were tested separately and mixed with the various components.
# A concentration of 100 mg/jar was used for each individual alone. In the co-treatment experiment without pyrethrins, 20 mg/jar for each chemical was used. In the cotreatment experiment with pyrethrins, 20 mg/jar for the naturally occurring plant material was used. Pyrethrins was used at 2 mg/jar. […] It was noted above that the mortality is dependent upon concentration. […] Some synergism is found between pyrethrins and either α-terpineol or benzyl alcohol.
# [5] = 500 ng/ml, solvent control 1101 ± 120
# [6] = 1000 ng/ml, solvent control 930 ± 89
# [7] = 500 ng/ml, Table 3, solvent control 1385 ± 101
# [8] = 500 μg/roach injected into thoracic and abdominal segments, 24 hr., dead/10
# [9] = 500 μg/roach injected, 48 hr., dead/10
# [10] = 500 μg/roach injected, 72 hr., dead/10, control 1/10
# [11] = 1000 ng/ml, Table 3, solvent control 1915 ± 110
# [12] = 300 ng test chemical, Table 1, solvent control 1280 ± 259
# [13] = 500 ng test chemical, Table 1, solvent control 1280 ± 259
# [14] = 700 ng test chemical, Table 1, solvent control 1280 ± 259
# [15] = 1000 ng test chemical, Table 1, solvent control 1280 ± 259
# [16] = 1500 ng test chemical, Table 1, solvent control 1280 ± 259
molecule,measurement,setting,value
CC(=O)OCc1ccccc1 [Benzyl Acetate],Heart beat/30 sec 30 min after treatment,[1],42 ± 1 beat/30 sec
same,Heart beat/30 sec before treatment,[1],45 ± 2 beat/30 sec
OC/C=C/c1ccccc1 [Cinnamic Alcohol],Heart beat/30 sec 30 min after treatment,[1],54 ± 3 beat/30 sec
same,Heart beat/30 sec before treatment,[1],52 ± 2 beat/30 sec
CC(C)=CCCC(C)CCO (stereo not drawn) [Citronellol],dpm 3H-OA/500 μg protein,[2]; [5],999 ± 65 dpm 3H-OA/500 μg protein
same,dpm 3H-OA/500 μg protein,[2]; [6],557 ± 43 dpm 3H-OA/500 μg protein
CCOc1cc(C=O)ccc1O [Ethyl vanillin],cpm 3H-OA/500 μg protein,[2]; [7],1723 ± 119 cpm 3H-OA/500 μg protein
same,classification with respect to octopamine receptor sites (OAR),[2],Non-OAR Specific Toxicants
"CC12CCC(CC1)C(C)(C)O2 [Eucaluptol, Eucalyptol]",Mortality,[3]; [8],0/10
same,Mortality,[3]; [9],0/10
same,Mortality,[3]; [10],0/10
same,agonist/antagonist note to 3H-OA binding,[2]; 500 ng/ml,antagonist
same,dpm 3H-OA/500 μg protein,[2]; [5],865 ± 45 dpm 3H-OA/500 μg protein
same,cpm 3H-OA/500 μg protein,[2]; [7],1637 ± 095 cpm 3H-OA/500 μg protein
same,dpm 3H-OA/500 μg protein,[2]; [6],653 ± 36 dpm 3H-OA/500 μg protein
same,classification with respect to octopamine receptor sites (OAR),[2],Non-OAR Specific Toxicants
COc1ccccc1O [Guaiacol],cpm 3H-OA/500 μg protein,[2]; [7],1787 ± 151 cpm 3H-OA/500 μg protein
same,classification with respect to octopamine receptor sites (OAR),[2],Non-OAR Specific Toxicants
COC(=O)c1ccccc1O [Methyl salicylate],"activity/binding at octopamine receptor sites, in words",[2],antagonists which are most strongly bound
same,agonist/antagonist note to 3H-OA binding,[2]; 500 ng/ml,antagonist
same,cpm 3H-OA/500 μg protein,[2]; [7],0084 ± 009 cpm 3H-OA/500 μg protein
same,classification with respect to octopamine receptor sites (OAR),[2],extremely high OAR antagonists
same,mortality at 10 mg,"[4]; Periplaneta americana, 24 h",0%
same,mortality at 20 mg,"[4]; Periplaneta americana, 24 h",20%
same,mortality at 30 mg,"[4]; Periplaneta americana, 24 h",40%
same,mortality at 40 mg,"[4]; Periplaneta americana, 24 h",80%
same,mortality at 50 mg,"[4]; Periplaneta americana, 24 h",100%
same,"pesticidal activity against cockroaches, in words",[4],high pesticidal activity
O=Cc1ccc2c(c1)OCO2 [Piperonal],cpm 3H-OA/500 μg protein,[2]; [7],1680 ± 131 cpm 3H-OA/500 μg protein
same,classification with respect to octopamine receptor sites (OAR),[2],Non-OAR Specific Toxicants
CC(=O)OCc1ccc2c(c1)OCO2 [Piperonyl acetate],agonist/antagonist note to 3H-OA binding,[2]; 500 ng/ml,antagonist
same,cpm 3H-OA/500 μg protein,[2]; [7],1090 ± 092 cpm 3H-OA/500 μg protein
same,cpm 3H-OA/500 μg protein,[2]; [11],519 ± 52 cpm 3H-OA/500 μg protein
OCc1ccc2c(c1)OCO2 [Piperonyl alcohol],agonist/antagonist note to 3H-OA binding,[2]; 500 ng/ml,antagonist
same,cpm 3H-OA/500 μg protein,[2]; [7],1124 ± 083 cpm 3H-OA/500 μg protein
same,cpm 3H-OA/500 μg protein,[2]; [11],862 ± 61 cpm 3H-OA/500 μg protein
C=C(C)[C@H]1CC=C(C)CC1 [R-limonene],cpm 3H-OA/500 μg protein,[2]; [7],1436 ± 133 cpm 3H-OA/500 μg protein
same,classification with respect to octopamine receptor sites (OAR),[2],Non-OAR Specific Toxicants
C/C=C/c1ccc(OC)cc1 [Trans-Anethole],agonist/antagonist note to 3H-OA binding,[2]; 500 ng/ml,antagonist
same,cpm 3H-OA/500 μg protein,[2]; [7],1104 ± 110 cpm 3H-OA/500 μg protein
same,cpm 3H-OA/500 μg protein,[2]; [11],970 ± 87 cpm 3H-OA/500 μg protein
same,classification with respect to octopamine receptor sites (OAR),[2],moderate OAR antagonists
COc1cc(C=O)ccc1O [Vanillin],agonist/antagonist note to 3H-OA binding,[2]; 500 ng/ml,antagonist
same,cpm 3H-OA/500 μg protein,[2]; [7],1030 ± 83 cpm 3H-OA/500 μg protein
same,cpm 3H-OA/500 μg protein,[2]; [11],700 ± 55 cpm 3H-OA/500 μg protein
CC(C)=CCCC(C)CC=O (stereo not drawn) [citronellal],Mortality,[3]; [8],0/10
same,Mortality,[3]; [9],0/10
same,Mortality,[3]; [10],0/10
C=C(C)[C@H]1CC=C(C)CC1 [d-limonene],Mortality,[3]; [8],0/10
same,Mortality,[3]; [9],0/10
same,Mortality,[3]; [10],0/10
same,"activity/binding at octopamine receptor sites, in words",[2],no activity against octopamine receptor sites
same,dpm 3H-OA/500 μg protein,[2]; [5],1194 ± 101 dpm 3H-OA/500 μg protein
same,dpm 3H-OA/500 μg protein,[2]; [6],866 ± 71 dpm 3H-OA/500 μg protein
Cc1ccc(C(C)C)cc1 [p-cymene],agonist/antagonist note to 3H-OA binding,[2]; 500 ng/ml,antagonist
same,cpm 3H-OA/500 μg protein,[2]; [7],1142 ± 074 cpm 3H-OA/500 μg protein
same,cpm 3H-OA/500 μg protein,[2]; [11],804 ± 057 cpm 3H-OA/500 μg protein
same,classification with respect to octopamine receptor sites (OAR),[2],moderate OAR antagonists
CC(C)=C1CC[C@@H](C)CC1=O [pulegone],Mortality,"[3]; 50 μg injected through the end of the abdominal segment, 48 hr. after treatment",20%
same,Mortality 24 hr after treatment,"[3]; 300 μg, dead/10",3/10
same,Mortality 24 hr after treatment,"[3]; 400 μg, dead/10",5/10
same,Mortality,[3]; [8],6/10
same,Mortality,[3]; [9],6/10
same,Mortality,[3]; [10],7/10
same,Mortality 24 hr after treatment,"[3]; 500 μg, dead/10",5/10
same,Mortality 24 hr after treatment,"[3]; 600 μg, dead/10",8/10
same,Mortality 24 hr after treatment,"[3]; 700 μg, dead/10",10/10
same,cpm 3H-OA/500 μg protein,[2]; [12],936 ± 33 cpm 3H-OA/500 μg protein
same,cpm 3H-OA/500 μg protein,[2]; [13],778 ± 22 cpm 3H-OA/500 μg protein
same,cpm 3H-OA/500 μg protein,[2]; [14],662 ± 51 cpm 3H-OA/500 μg protein
same,cpm 3H-OA/500 μg protein,[2]; [15],435 ± 22 cpm 3H-OA/500 μg protein
same,cpm 3H-OA/500 μg protein,[2]; [16],217 ± 18 cpm 3H-OA/500 μg protein
same,classification with respect to octopamine receptor sites (OAR),[2],high OAR antagonists
same,mortality at 10 mg,"[4]; Periplaneta americana, 24 h",100%
same,"pesticidal activity against cockroaches, in words",[4],high pesticidal activity
CC1=CC[C@H](C(C)C)C=C1 [α-phellandrene],agonist/antagonist note to 3H-OA binding,[2]; 500 ng/ml,agonist
same,cpm 3H-OA/500 μg protein,[2]; [7],2353 ± 343 cpm 3H-OA/500 μg protein
same,classification with respect to octopamine receptor sites (OAR),[2],OAR Agonists
CC1=CCC(C(C)(C)O)CC1 (stereo not drawn) [α-terpineol],cpm 3H-OA/500 μg protein,[2]; [12],1213 ± 110 cpm 3H-OA/500 μg protein
same,cpm 3H-OA/500 μg protein,[2]; [13],1031 ± 24 cpm 3H-OA/500 μg protein
same,cpm 3H-OA/500 μg protein,[2]; [14],910 ± 88 cpm 3H-OA/500 μg protein
same,cpm 3H-OA/500 μg protein,[2]; [15],700 ± 88 cpm 3H-OA/500 μg protein
same,cpm 3H-OA/500 μg protein,[2]; [16],565 ± 47 cpm 3H-OA/500 μg protein
same,classification with respect to octopamine receptor sites (OAR),[2],moderate OAR antagonists
same,mortality at 100 mg,"[4]; Periplaneta americana, 24 h",20%
same,mortality at 100 mg,"[4]; Periplaneta americana, 48 h",30%
same,mortality at 100 mg,"[4]; Periplaneta americana, 72 h",60%
same,Heart beat/30 sec 30 min after treatment,[1],32 ± 2 beat/30 sec
same,Heart beat/30 sec before treatment,[1],58 ± 4 beat/30 sec
Citronellal 80,agonist/antagonist note to 3H-OA binding,[2]; 500 ng/ml,antagonist
same,dpm 3H-OA/500 μg protein,[2]; [5],725 ± 95 dpm 3H-OA/500 μg protein
same,dpm 3H-OA/500 μg protein,[2]; [6],526 ± 33 dpm 3H-OA/500 μg protein
same,classification with respect to octopamine receptor sites (OAR),[2],moderate OAR antagonists
